Experimental data reported in ChEMBL document CHEMBL5465560, “Selectivity Literature for EUbOPEN Chemogenomic Library” (2024).
Blank lines part the entries; values can stand above or below the compound they belong to.

Columns and labels:
[1] = biological target: Rho-associated protein kinase 2 (Homo sapiens, UniProt O75116); experiment: Selectivity interaction (Kinase panel (33PanQinase(R) Activity Assay)) EUB0000877a ROCK2
[2] = biological target: T1, Tyrosine-protein kinase ABL1 (Homo sapiens, UniProt P00519); experiment: (§1) Selectivity interaction (KinomeScan (DiscoverX)) EUB0000607a ABL1; conditions: at 10 µM
[3] = test system: Tyrosine-protein kinase ABL1 (Homo sapiens), P00519 [F317I]; experiment: as §1; conditions: at 10 µM
[4] = test system: Tyrosine-protein kinase ABL1 (Homo sapiens), P00519 [T315I]; experiment: as §1; conditions: at 10 µM
[5] = test system: Tyrosine-protein kinase ABL1 (Homo sapiens), P00519 [Q252H]; experiment: as §1; conditions: at 10 µM
[6] = test system: Tyrosine-protein kinase ABL1 (Homo sapiens), P00519 [M351T]; experiment: as §1; conditions: at 10 µM
[7] = test system: Tyrosine-protein kinase ABL1 (Homo sapiens), P00519 [H396P]; experiment: as §1; conditions: at 10 µM
[8] = test system: Tyrosine-protein kinase ABL1 (Homo sapiens), P00519 [E255K]; experiment: as §1; conditions: at 10 µM
[9] = test system: Tyrosine-protein kinase ABL1 (Homo sapiens), P00519 [Y253F]; experiment: as §1; conditions: at 10 µM
[10] = test system: Tyrosine-protein kinase ABL1 (Homo sapiens), P00519 [F317L]; experiment: as §1; conditions: at 10 µM
[11] = biological target: SRSF protein kinase 2 (Homo sapiens) (UniProt P78362); experiment: Selectivity interaction (Upstate Kinase Profiler service (Millipore)) EUB0000056c SRPK2; conditions: at 1 µM
SRSF protein kinase 2 (Homo sapiens), sequence (P78362 whole entry, looked up): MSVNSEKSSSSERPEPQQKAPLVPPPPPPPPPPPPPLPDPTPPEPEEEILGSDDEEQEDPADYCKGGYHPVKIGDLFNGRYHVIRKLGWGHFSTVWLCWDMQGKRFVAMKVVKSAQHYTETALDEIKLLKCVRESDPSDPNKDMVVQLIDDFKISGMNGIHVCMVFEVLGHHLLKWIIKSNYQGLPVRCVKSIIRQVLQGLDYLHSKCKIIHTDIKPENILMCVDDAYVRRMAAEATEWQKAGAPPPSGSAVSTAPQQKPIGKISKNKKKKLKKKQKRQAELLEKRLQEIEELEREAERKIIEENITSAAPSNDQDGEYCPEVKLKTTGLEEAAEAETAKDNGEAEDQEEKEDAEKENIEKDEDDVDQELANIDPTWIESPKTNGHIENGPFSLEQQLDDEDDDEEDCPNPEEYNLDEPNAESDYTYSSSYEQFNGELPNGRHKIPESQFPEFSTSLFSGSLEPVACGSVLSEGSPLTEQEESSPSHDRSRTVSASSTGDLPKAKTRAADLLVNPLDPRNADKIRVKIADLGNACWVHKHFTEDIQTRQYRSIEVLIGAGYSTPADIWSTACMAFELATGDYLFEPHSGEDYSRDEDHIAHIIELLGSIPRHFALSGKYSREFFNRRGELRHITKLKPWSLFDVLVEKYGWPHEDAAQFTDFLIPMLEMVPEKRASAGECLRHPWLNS

[12] = biological target: Glycogen synthase kinase-3 alpha (Homo sapiens, UniProt P49840); conditions: at 10 µM
Glycogen synthase kinase-3 alpha, sequence (P49840 2-483 limits assumed): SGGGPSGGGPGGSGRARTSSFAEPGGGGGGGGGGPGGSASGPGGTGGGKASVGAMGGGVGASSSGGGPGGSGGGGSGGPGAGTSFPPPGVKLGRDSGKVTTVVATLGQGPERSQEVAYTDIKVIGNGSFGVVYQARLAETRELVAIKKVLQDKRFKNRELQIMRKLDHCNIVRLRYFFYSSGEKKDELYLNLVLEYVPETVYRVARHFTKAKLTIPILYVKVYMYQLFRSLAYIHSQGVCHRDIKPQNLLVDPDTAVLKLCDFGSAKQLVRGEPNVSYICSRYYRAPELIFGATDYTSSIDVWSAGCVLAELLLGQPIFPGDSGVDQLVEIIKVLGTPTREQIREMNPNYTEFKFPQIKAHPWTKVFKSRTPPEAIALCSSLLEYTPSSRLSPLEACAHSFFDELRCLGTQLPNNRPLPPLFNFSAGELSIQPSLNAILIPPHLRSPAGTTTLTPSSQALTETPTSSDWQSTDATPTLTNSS

[13] = biological target: Serine/threonine-protein kinase mTOR (Homo sapiens, UniProt P42345); experiment: Selectivity interaction (ProQinase) EUB0000171b MTOR
[14] = biological target: Homeodomain-interacting protein kinase 2 (Homo sapiens, UniProt Q9H2X6); experiment: Selectivity interaction (Ambit KINOMEscan and KiNATiv profiling in Jurkat cells) EUB0000090b HIPK2; format: cell-based; conditions: at 1 µM
[15] = biological target: Non-receptor tyrosine-protein kinase TYK2 (Homo sapiens, UniProt P29597); experiment: Selectivity interaction (KinomeScan (DiscoverX)) EUB0000655a TYK2; conditions: at 10 µM
[16] = biological target: Tyrosine-protein kinase Fer (Homo sapiens) (UniProt P16591); experiment: Selectivity interaction (KinomeScan (DiscoverX)) EUB0001079a FER; conditions: at 1 µM
Tyrosine-protein kinase Fer (Homo sapiens), sequence (P16591 whole entry, looked up): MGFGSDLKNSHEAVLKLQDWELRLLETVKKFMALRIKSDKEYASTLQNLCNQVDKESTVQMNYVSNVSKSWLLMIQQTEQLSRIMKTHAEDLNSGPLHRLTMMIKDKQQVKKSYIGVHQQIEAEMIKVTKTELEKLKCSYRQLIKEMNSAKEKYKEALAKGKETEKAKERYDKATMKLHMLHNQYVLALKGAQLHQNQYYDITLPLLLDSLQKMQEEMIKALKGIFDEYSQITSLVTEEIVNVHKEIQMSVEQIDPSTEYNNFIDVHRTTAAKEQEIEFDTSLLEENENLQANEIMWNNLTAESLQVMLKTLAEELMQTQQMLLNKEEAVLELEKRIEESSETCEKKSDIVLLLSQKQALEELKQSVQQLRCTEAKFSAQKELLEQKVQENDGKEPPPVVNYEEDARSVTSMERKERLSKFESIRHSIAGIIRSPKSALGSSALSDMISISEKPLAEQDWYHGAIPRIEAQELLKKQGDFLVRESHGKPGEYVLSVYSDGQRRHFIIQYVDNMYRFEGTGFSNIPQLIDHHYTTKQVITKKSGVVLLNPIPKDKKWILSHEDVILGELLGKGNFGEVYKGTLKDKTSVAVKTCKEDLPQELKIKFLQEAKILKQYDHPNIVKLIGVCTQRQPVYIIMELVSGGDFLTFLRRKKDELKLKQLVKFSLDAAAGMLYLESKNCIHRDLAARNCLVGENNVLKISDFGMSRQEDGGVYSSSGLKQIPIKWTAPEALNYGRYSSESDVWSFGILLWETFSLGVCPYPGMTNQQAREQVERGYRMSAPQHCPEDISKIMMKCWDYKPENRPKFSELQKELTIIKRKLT

[17] = biological target: Mitogen-activated protein kinase kinase kinase 1 (Homo sapiens, UniProt Q13233); experiment: Selectivity interaction (KinomeScan (DiscoverX)) EUB0001079a MAP3K1; conditions: at 1 µM
[18] = biological target: T1, Tyrosine-protein kinase ABL1; experiment: Selectivity interaction (KinomeScan (DiscoverX)) EUB0001079a ABL1; conditions: at 1 µM
[19] = biological target: Alpha-2B adrenergic receptor (Homo sapiens) (UniProt P18089); experiment: Selectivity interaction (GPCR panel (PDSP screen)) EUB0001079a ADRA2B; conditions: at 10 µM
Alpha-2B adrenergic receptor (Homo sapiens), sequence (P18089 whole entry): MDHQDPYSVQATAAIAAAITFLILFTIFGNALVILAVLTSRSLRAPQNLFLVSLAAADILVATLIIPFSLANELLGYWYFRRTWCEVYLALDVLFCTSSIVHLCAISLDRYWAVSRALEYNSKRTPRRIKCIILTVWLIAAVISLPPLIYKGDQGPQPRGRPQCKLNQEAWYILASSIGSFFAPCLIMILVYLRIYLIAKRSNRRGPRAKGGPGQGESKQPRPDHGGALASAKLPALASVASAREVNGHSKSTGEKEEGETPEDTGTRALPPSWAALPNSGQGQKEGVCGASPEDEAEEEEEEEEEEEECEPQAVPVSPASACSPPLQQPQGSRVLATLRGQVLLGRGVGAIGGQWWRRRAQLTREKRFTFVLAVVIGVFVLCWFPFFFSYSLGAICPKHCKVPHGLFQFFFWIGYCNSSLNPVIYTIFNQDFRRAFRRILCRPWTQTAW

[20] = biological target: T2, Histone-arginine methyltransferase CARM1 (Homo sapiens) (UniProt Q86X55); conditions: MM1.S, at 3 µM
T2 sequence (whole entry): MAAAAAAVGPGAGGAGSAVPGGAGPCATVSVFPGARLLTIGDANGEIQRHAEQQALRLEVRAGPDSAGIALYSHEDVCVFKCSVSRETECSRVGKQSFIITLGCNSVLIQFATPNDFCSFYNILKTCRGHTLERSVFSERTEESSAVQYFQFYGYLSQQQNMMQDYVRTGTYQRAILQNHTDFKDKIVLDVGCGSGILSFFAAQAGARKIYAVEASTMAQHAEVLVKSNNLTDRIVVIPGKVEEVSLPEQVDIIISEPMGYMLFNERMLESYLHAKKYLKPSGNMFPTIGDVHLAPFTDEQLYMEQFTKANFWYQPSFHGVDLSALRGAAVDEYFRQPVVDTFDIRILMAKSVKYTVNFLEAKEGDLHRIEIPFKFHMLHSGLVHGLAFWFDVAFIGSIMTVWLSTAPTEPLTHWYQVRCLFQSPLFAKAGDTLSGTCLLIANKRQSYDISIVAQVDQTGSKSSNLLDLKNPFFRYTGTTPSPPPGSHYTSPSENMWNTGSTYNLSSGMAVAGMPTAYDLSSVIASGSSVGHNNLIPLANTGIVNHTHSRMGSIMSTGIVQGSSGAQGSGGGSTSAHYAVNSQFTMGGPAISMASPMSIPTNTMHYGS

[21] = biological target: Serine/threonine-protein kinase pim-1 (Homo sapiens, UniProt P11309); experiment: Selectivity interaction (KinomeScan (DiscoverX)) EUB0000092b PIM1; conditions: at 10 µM
Serine/threonine-protein kinase pim-1, sequence (P11309 whole entry, looked up): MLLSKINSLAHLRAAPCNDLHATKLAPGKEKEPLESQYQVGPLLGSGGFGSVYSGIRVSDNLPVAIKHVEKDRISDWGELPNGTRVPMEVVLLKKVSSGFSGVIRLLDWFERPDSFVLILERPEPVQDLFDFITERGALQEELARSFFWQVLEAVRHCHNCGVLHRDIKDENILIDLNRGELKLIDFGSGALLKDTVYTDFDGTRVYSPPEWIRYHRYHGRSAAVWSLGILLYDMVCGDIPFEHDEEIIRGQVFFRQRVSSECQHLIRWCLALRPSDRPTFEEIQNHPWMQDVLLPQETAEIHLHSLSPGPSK

[22] = biological target: Serine/threonine-protein kinase 25 (Homo sapiens) (UniProt O00506); conditions: at 10 µM
Serine/threonine-protein kinase 25 (Homo sapiens), sequence (O00506 whole entry, looked up): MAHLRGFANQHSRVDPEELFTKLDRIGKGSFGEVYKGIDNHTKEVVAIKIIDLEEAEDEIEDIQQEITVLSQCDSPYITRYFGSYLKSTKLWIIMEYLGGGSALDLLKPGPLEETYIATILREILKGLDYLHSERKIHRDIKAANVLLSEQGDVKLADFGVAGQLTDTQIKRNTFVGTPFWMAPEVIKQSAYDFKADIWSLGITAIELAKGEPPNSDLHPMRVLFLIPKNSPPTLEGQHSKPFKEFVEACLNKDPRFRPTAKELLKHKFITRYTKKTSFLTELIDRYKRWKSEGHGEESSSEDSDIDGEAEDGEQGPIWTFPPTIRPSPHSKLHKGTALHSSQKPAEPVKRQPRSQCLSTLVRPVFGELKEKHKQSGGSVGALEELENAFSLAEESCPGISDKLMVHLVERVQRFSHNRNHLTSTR

[23] = biological target: T3, Aurora kinase A (Homo sapiens) (UniProt O14965); conditions: at 10 µM
T3 sequence (whole entry): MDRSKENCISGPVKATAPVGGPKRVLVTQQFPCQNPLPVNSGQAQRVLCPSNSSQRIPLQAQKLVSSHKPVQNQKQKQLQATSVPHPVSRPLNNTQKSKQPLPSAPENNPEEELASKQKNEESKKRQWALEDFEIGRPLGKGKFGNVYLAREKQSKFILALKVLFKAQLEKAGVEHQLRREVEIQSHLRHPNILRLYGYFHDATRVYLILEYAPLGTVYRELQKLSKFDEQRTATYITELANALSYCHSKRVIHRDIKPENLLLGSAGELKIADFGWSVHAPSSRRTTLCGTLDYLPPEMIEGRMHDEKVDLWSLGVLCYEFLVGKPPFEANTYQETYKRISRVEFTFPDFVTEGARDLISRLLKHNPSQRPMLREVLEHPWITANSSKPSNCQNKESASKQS

[24] = biological target: STE20-like serine/threonine-protein kinase (Homo sapiens, UniProt Q9H2G2); experiment: Selectivity interaction (KinomeScan (DiscoverX)) EUB0001619a SLK; conditions: at 1 µM

Rho-associated protein kinase 2, sequence (O75116 whole entry): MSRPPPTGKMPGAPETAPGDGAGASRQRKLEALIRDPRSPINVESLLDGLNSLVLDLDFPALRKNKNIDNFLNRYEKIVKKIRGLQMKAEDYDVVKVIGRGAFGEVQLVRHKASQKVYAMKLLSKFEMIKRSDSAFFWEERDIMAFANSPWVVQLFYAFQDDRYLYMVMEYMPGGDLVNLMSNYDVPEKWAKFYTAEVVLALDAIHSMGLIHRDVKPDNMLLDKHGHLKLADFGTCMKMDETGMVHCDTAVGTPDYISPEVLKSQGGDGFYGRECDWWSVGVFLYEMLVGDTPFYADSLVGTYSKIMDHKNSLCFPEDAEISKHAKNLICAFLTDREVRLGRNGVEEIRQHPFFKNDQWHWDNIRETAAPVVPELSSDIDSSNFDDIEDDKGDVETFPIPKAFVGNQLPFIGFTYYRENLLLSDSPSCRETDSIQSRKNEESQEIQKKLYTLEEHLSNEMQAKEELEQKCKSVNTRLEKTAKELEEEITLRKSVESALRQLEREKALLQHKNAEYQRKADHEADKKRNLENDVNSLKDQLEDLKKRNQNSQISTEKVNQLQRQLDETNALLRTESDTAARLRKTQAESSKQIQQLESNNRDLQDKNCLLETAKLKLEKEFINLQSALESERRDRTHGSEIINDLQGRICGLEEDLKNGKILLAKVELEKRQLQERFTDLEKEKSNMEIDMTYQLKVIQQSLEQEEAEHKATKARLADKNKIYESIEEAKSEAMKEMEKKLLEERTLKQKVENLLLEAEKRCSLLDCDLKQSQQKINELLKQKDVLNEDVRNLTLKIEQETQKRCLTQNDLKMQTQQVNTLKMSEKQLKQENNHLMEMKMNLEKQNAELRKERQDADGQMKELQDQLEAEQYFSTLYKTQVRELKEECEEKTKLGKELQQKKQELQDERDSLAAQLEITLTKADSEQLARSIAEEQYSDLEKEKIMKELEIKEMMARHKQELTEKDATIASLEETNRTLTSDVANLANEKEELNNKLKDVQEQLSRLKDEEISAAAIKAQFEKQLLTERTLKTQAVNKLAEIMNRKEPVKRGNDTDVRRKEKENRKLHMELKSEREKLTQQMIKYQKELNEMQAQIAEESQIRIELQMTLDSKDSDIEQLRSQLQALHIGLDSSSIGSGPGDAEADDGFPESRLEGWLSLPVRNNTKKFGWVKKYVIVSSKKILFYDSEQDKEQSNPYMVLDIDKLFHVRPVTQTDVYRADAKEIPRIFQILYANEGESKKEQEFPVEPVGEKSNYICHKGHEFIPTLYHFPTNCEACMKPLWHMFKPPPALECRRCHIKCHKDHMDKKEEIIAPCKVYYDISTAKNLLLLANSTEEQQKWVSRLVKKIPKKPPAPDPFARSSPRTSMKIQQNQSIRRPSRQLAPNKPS

IC50 [1]: > 10 µM
Compound: CCC(=O)N1CC[C@H](Nc2ncnc3c2CN(c2cnc(OC)c(C(F)(F)F)c2)CC3)C1 [LENIOLISIB]

Compound: CNC(=O)Nc1ccc(-c2nc(N3CC4CCC(C3)O4)c3cnn(C4CCC5(CC4)OCCO5)c3n2)cc1
% of control [2]: 100%
% of control [3]: 100%
% of control [4]: 83%
% of control [5]: 100%
% of control [6]: 100%
% of control [7]: 100%
% of control [8]: 100%
% of control [9]: 99%
% of control [10]: 100%

% of inhibition [11]: 33%
Compound: Cc1ccc(-c2ccc3c(ccc4sc5c(c43)NC[C@@H](C)NC5=O)n2)cn1

% of control [12]: 100%
Compound: CCN(CC)CCCCNc1ncc2cc(-c3cc(OC)cc(OC)c3)c(NC(=O)NC(C)(C)C)nc2n1

% of control ([13]; at 1 µM): 88%
% of control ([13]; at 5 µM): 91%
Compound: C=CC(=O)Nc1cccc(C(=O)Nc2ccc(Nc3cc(-c4[nH]c(SC)nc4C)ccn3)cc2)c1

Compound: CN(C)C/C=C/C(=O)Nc1ccc(C(=O)N2CCCC(Nc3ncc(Cl)c(-c4c[nH]c5ccccc45)n3)C2)cc1 (stereo not given)
% of control [14]: 70%

Compound: CN(C)CCOc1ccc(-c2nc(-c3ccncc3)c(-c3ccc4c(c3)CC/C4=N\O)[nH]2)cc1
% of control [15]: 100%

Compound: Nc1cnc(N2CCc3cc(S(=O)(=O)Nc4c(F)cc(Cl)cc4F)cc(N4CCCC4=O)c32)nc1 [TP-020n]
% of control [16]: 100%
% of control [17]: 100%
% of control [18]: 97%
% of inhibition [19]: 0.99%

% of growth rate [20]: -31%
Compound: CNCCN1CCC(c2cc(CN(C)C(=O)c3cccc(Oc4ccccc4)c3)ccn2)CC1

Compound: CCC(=O)N1CCN(c2ccc(-n3c(=O)ccc4cnc5ccc(-c6cnc7ccccc7c6)cc5c43)cc2C(F)(F)F)CC1
% of control [21]: 80%

Compound: Cc1cc([C@@H](C)Nc2ccccc2C(=O)O)c2nc(N3CCOCC3)cc(=O)n2c1 [AZD-6482]
% of control [22]: 76%
% of control [23]: 100%

Compound: N#Cc1cccc(-c2c[nH]c3ncnc(N4CCOCC4)c23)c1
% of control [24]: 25%
